How the values were obtained:
Format in all cases: functional
[1] = Compound was evaluated for total growth inhibition of 60 cell lines in NCI screen
[2] = Compound was evaluated for growth inhibition of 60 cell lines in NCI screen
[3] = Lethal concentration of compound was evaluated against 60 cell lines in NCI screen
CCRF-CEM = experiment: Compound was evaluated for growth inhibition of leukemia CCRF-CEM cell line in NCI 60-cell line screen; details: Homo sapiens
HCT-116 = experiment: Compound was evaluated for growth inhibition of colon HCT116 cell line in NCI 60-cell line screen; details: Homo sapiens
HOP-92 = experiment: Compound was evaluated for growth inhibition of non-small cell lung HOP-92 cell line in NCI 60-cell line screen; details: Homo sapiens
MCF7 = experiment: Compound was evaluated for growth inhibition of breast MCF-7 cell line in NCI 60-cell line screen; details: Homo sapiens
OVCAR-5 = experiment: Compound was evaluated for growth inhibition of ovarian OVCAR-5 cell line in NCI 60-cell line screen; details: Homo sapiens
PC-3 = experiment: Compound was evaluated for growth inhibition of prostate PC-3 cell line in NCI 60-cell line screen; details: Homo sapiens
RXF 393 = experiment: Compound was evaluated for growth inhibition of renal RXF-393 cell line in NCI 60-cell line screen; details: Homo sapiens
U-251 = experiment: Compound was evaluated for growth inhibition of central nervous system U251 cell line in NCI 60-cell line screen; details: Homo sapiens
UACC-257 = experiment: Compound was evaluated for growth inhibition of melanoma UACC-257 cell line in NCI 60-cell line screen; details: Homo sapiens

COC(=O)/C=C/C1=CN2C(=O)c3cc(OC)c(OC)cc3N=C[C@@H]2C1
TGI [1]: 1320 nM
GI50 [2]: 13 nM
LC50 (50% lethal concentration) [3]: 55000 nM

COc1cc2c(cc1OC)C(=O)N1C=C(/C=C/C(N)=O)C[C@H]1C=N2
TGI [1]: 3720 nM
GI50 [2]: 53 nM
LC50 (50% lethal concentration) [3]: 69200 nM

COc1cc2c(cc1OC)C(=O)N1C=C(/C=C/C(=O)N(C)C)C[C@H]1C=N2
GI50 (CCRF-CEM): 0.6 nM
GI50 (HCT-116): 11.7 nM
GI50 (HOP-92): 2.34 nM
GI50 (MCF7): 7.15 nM
GI50 (OVCAR-5): 3.21 nM
GI50 (PC-3): 18.6 nM
GI50 (RXF 393): 1.65 nM
GI50 (U-251): 3.33 nM
TGI [1]: 96 nM
GI50 [2]: 12 nM
LC50 (50% lethal concentration) [3]: 650 nM
GI50 (UACC-257): 0.25 nM

Cc1ccc2c(c1O)NC(O)C1CC(/C=C/C(N)=O)=CN1C2=O (stereo not given) [ANTHRAMYCIN]
GI50 (CCRF-CEM): 20 nM
GI50 (HCT-116): 39.8 nM
GI50 (HOP-92): 20 nM
GI50 (MCF7): 39.8 nM
GI50 (OVCAR-5): 50.1 nM
GI50 (PC-3): 20 nM
GI50 (RXF 393): 31.6 nM
GI50 (U-251): 20 nM
TGI [1]: 610 nM
GI50 [2]: 29 nM
LC50 (50% lethal concentration) [3]: 12700 nM
GI50 (UACC-257): 63.1 nM
